This note sets out measurements from patent US20230183292A1, “IMMUNOMODULATORS” (priority 2020, published 2023).

Starred links: 1 amine or outer side, 2 acyl side, 3 side chain; linkers in the order of their positions; H or OH if unused. Positions of bridges follow the written chain, without caps; N, C: chain ends. Non-standard residues stand in square brackets, D forms with d. Residues, ends and D or L forms follow the SMILES beside them. Groups on a side chain read outwards from the residue. *: point of attachment. X9 = C[C@H](CCC(=O)O)[C@H]1CC[C@H]2[C@@H]3C(O)C[C@@H]4CC(NCC[C@H](N[*:1])C(=O)[*:2])CC[C@]4(C)[C@H]3CC(=O)[C@]12C; X8 = C[C@H](CCC(=O)O)[C@H]1CC[C@H]2[C@@H]3C(O)C[C@@H]4CC(NC[C@H](N[*:1])C(=O)[*:2])CC[C@]4(C)[C@H]3CC(=O)[C@]12C; Ursodeoxycholyl = C[C@H](CCC(=O)*)[C@H]1CC[C@H]2[C@@H]3[C@@H](O)C[C@@H]4C[C@H](O)CC[C@]4(C)[C@H]3CC[C@]12C; Cholyl = C[C@H](CCC(=O)*)[C@H]1CC[C@H]2[C@@H]3[C@H](O)C[C@@H]4C[C@H](O)CC[C@]4(C)[C@H]3C[C@H](O)[C@]12C; X35 = O=C(Cn1cc(C[C@H](N[*:1])C(=O)[*:2])c2ccccc21)NCC(F)(F)F; X27 = O=C(Cn1cc(C[C@H](N[*:1])C(=O)[*:2])c2ccccc21)Oc1ccccc1; X30 = CCCCCCOC(=O)Cn1cc(C[C@H](N[*:1])C(=O)[*:2])c2ccccc21; X4 = O=C(Cn1cc(C[C@H](N[*:1])C(=O)[*:2])c2ccccc21)OCCOCCO; X34 = CCCCOC(=O)Cn1cc(C[C@H](N[*:1])C(=O)[*:2])c2ccccc21; X7 = NCCCCNC(=O)Cn1cc(C[C@H](N[*:1])C(=O)[*:2])c2ccccc21; Trp(1-CH2COOH) = N[C@@H](Cc1cn(CC(=O)O)c2ccccc12)C(=O)O; X37 = O=C(Cn1cc(C[C@H](N[*:1])C(=O)[*:2])c2ccccc21)OCCO; X1 = NCCNC(=O)Cn1cc(C[C@H](N[*:1])C(=O)[*:2])c2ccccc21; Pro(4R-Me) = C[C@H]1CN[C@H](C(=O)O)C1; Hyp = O=C(O)[C@@H]1C[C@@H](O)CN1; NMeNle = CCCC[C@H](NC)C(=O)O; NMeA = CN[C@@H](C)C(=O)O; Dab = NCC[C@H](N)C(=O)O; Dap = NC[C@H](N)C(=O)O

The first experiment deals with T1, PD-1/PD-L1 (Homo sapiens, UniProt Q9NZQ7).
T1 construct: TVMV protease site (C); made in house; host or cells: HEK293T cells
T1 sequence (Q9NZQ7 18-239): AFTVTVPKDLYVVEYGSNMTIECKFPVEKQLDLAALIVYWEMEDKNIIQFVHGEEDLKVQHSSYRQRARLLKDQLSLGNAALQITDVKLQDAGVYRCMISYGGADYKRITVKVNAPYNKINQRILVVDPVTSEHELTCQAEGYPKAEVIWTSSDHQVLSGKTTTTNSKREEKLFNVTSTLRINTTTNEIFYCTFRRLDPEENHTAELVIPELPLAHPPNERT
The experiment in a line: PD-1/PD-L1 Homogenous Time-Resolved Fluorescence (HTRF) binding assay. Conditions: HTRF IC50, PD-L1-His 10 nM, PD-1-Ig 20 nM. In short, it runs like this: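 Inhibitors pre-incubated 15 min with PD-L1-His (10 nM final) in dPBS, 0.1% BSA, 0.05% Tween-20, then 15 min with PD-1-Ig (20 nM final). Eu-cryptate anti-Ig (1 nM) and APC anti-His (20 nM) added, 30 min equilibration; HTRF 665/620 nm ratio. Human ECD proteins from HEK293T.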
Background: In TR-FRET formats the signal depends on donor and acceptor labels being close together.
In turn, `CCCC[C@H]1C(=O)N(C)[C@@H](CCCC)C(=O)N[C@@H](CC(C)C)C(=O)N[C@H](C(=O)NCC(N)=O)CSCC(=O)N[C@@H](Cc2ccc(O)cc2)C(=O)N(C)[C@@H](C)C(=O)N[C@@H](CC(N)=O)C(=O)N2CCC[C@H]2C(=O)N[C@@H](CNC(=O)CNC(=O)CC[C@@H](C)[C@H]2CC[C@H]3[C@@H]4[C@H](O)C[C@@H]5C[C@H](O)CC[C@]5(C)[C@H]4C[C@H](O)[C@]23C)C(=O)N[C@@H](CC(C)C)C(=O)N2C[C@H](O)C[C@H]2C(=O)N[C@@H](Cc2c[nH]c3ccccc23)C(=O)N[C@@H](CCNC(=O)CNC(=O)CC[C@@H](C)[C@H]2CC[C@H]3[C@@H]4[C@H](O)C[C@@H]5C[C@H](O)CC[C@]5(C)[C@H]4C[C@H](O)[C@]23C)C(=O)N[C@@H](Cc2cn(CC(=O)Oc3ccccc3)c3ccccc23)C(=O)N1C` [Example 2037] ({CH2CO}-Y[NMeA]NP[Dap]([Gly-Cholyl])L[Hyp]W[Dab]([Gly-Cholyl])[X27][NMeNle][NMeNle]LCG-NH2; thioether N-14) had an IC50 of 420 nM.

Still in this experiment, the particulars now being: PD-L1-His 10 nM, PD-1-Ig 20 nM; read-out: HTRF IC50.
On to `CCCC[C@H]1C(=O)N(C)[C@@H](CCCC)C(=O)N[C@@H](CC(C)C)C(=O)N[C@H](C(=O)NCC(N)=O)CSCC(=O)N[C@@H](Cc2ccc(O)cc2)C(=O)N(C)[C@@H](C)C(=O)N[C@@H](CC(N)=O)C(=O)N2CCC[C@H]2C(=O)N[C@@H](CNC(=O)CNC(=O)CC[C@@H](C)[C@H]2CC[C@H]3[C@@H]4[C@H](O)C[C@@H]5C[C@H](O)CC[C@]5(C)[C@H]4C[C@H](O)[C@]23C)C(=O)N[C@@H](CC(C)C)C(=O)N2C[C@H](C)C[C@H]2C(=O)N[C@@H](Cc2c[nH]c3ccccc23)C(=O)N[C@@H](CCNC(=O)CNC(=O)CC[C@@H](C)[C@H]2CC[C@H]3[C@@H]4[C@H](O)C[C@@H]5C[C@H](O)CC[C@]5(C)[C@H]4C[C@H](O)[C@]23C)C(=O)N[C@@H](Cc2cn(CC(=O)NCC(F)(F)F)c3ccccc23)C(=O)N1C` [Example 2030] ({CH2CO}-Y[NMeA]NP[Dap]([Gly-Cholyl])L[Pro(4R-Me)]W[Dab]([Gly-Cholyl])[X35][NMeNle][NMeNle]LCG-NH2; thioether N-14), for which the IC50 worked out at 5600 nM.

Consider `CCCC[C@H]1C(=O)N(C)[C@@H](CCCC)C(=O)N[C@@H](CC(C)C)C(=O)N[C@H](C(=O)NCC(N)=O)CSCC(=O)N[C@@H](Cc2ccc(O)cc2)C(=O)N(C)[C@@H](C)C(=O)N[C@@H](CC(N)=O)C(=O)N2CCC[C@H]2C(=O)N[C@@H](CNC(=O)CNC(=O)CC[C@@H](C)[C@H]2CC[C@H]3[C@@H]4[C@H](O)C[C@@H]5C[C@H](O)CC[C@]5(C)[C@H]4C[C@H](O)[C@]23C)C(=O)N[C@@H](CC(C)C)C(=O)N2C[C@H](C)C[C@H]2C(=O)N[C@@H](Cc2c[nH]c3ccccc23)C(=O)N[C@@H](CCNC(=O)CNC(=O)CC[C@@H](C)[C@H]2CC[C@H]3[C@@H]4[C@H](O)C[C@@H]5C[C@H](O)CC[C@]5(C)[C@H]4C[C@H](O)[C@]23C)C(=O)N[C@@H](Cc2cn(CC(=O)NCCCCN)c3ccccc23)C(=O)N1C` [Example 2031] ({CH2CO}-Y[NMeA]NP[Dap]([Gly-Cholyl])L[Pro(4R-Me)]W[Dab]([Gly-Cholyl])[X7][NMeNle][NMeNle]LCG-NH2; thioether N-14), for which the IC50 came to 490 nM.

For the molecule `CCCC[C@H]1C(=O)N(C)[C@@H](CCCC)C(=O)N[C@@H](CC(C)C)C(=O)N[C@H](C(=O)NCC(N)=O)CSCC(=O)N[C@@H](Cc2ccc(O)cc2)C(=O)N(C)[C@@H](C)C(=O)N[C@@H](CC(N)=O)C(=O)N2CCC[C@H]2C(=O)N[C@@H](CNC(=O)CC[C@@H](C)[C@H]2CC[C@H]3[C@@H]4[C@@H](O)C[C@@H]5C[C@H](O)CC[C@]5(C)[C@H]4CC[C@]23C)C(=O)N[C@@H](CC(C)C)C(=O)N2C[C@H](C)C[C@H]2C(=O)N[C@@H](Cc2c[nH]c3ccccc23)C(=O)N[C@@H](CCNC(=O)CC[C@@H](C)[C@H]2CC[C@H]3[C@@H]4[C@@H](O)C[C@@H]5C[C@H](O)CC[C@]5(C)[C@H]4CC[C@]23C)C(=O)N[C@@H](Cc2cn(CC(=O)NCCN)c3ccccc23)C(=O)N1C` [Example 2032] ({CH2CO}-Y[NMeA]NP[Dap](Ursodeoxycholyl)L[Pro(4R-Me)]W[Dab](Ursodeoxycholyl)[X1][NMeNle][NMeNle]LCG-NH2; thioether N-14), the IC50 stood at 460 nM.

Regarding `CCCCOC(=O)Cn1cc(C[C@@H]2NC(=O)[C@H](CCNC(=O)CNC(=O)CC[C@@H](C)[C@H]3CC[C@H]4[C@@H]5[C@H](O)C[C@@H]6C[C@H](O)CC[C@]6(C)[C@H]5C[C@H](O)[C@]34C)NC(=O)[C@H](Cc3c[nH]c4ccccc34)NC(=O)[C@@H]3C[C@@H](C)CN3C(=O)[C@H](CC(C)C)NC(=O)[C@H](CNC(=O)CNC(=O)CC[C@@H](C)[C@H]3CC[C@H]4[C@@H]5[C@H](O)C[C@@H]6C[C@H](O)CC[C@]6(C)[C@H]5C[C@H](O)[C@]34C)NC(=O)[C@@H]3CCCN3C(=O)[C@H](CC(N)=O)NC(=O)[C@H](C)N(C)C(=O)[C@H](Cc3ccc(O)cc3)NC(=O)CSC[C@@H](C(=O)NCC(N)=O)NC(=O)[C@H](CC(C)C)NC(=O)[C@H](CCCC)N(C)C(=O)[C@H](CCCC)N(C)C2=O)c2ccccc21` [Example 2033] ({CH2CO}-Y[NMeA]NP[Dap]([Gly-Cholyl])L[Pro(4R-Me)]W[Dab]([Gly-Cholyl])[X34][NMeNle][NMeNle]LCG-NH2; thioether N-14), the IC50 came out at 4.2 nM.

With `CCCCCCOC(=O)Cn1cc(C[C@@H]2NC(=O)[C@H](CCNC(=O)CNC(=O)CC[C@@H](C)[C@H]3CC[C@H]4[C@@H]5[C@H](O)C[C@@H]6C[C@H](O)CC[C@]6(C)[C@H]5C[C@H](O)[C@]34C)NC(=O)[C@H](Cc3c[nH]c4ccccc34)NC(=O)[C@@H]3C[C@@H](C)CN3C(=O)[C@H](CC(C)C)NC(=O)[C@H](CNC(=O)CNC(=O)CC[C@@H](C)[C@H]3CC[C@H]4[C@@H]5[C@H](O)C[C@@H]6C[C@H](O)CC[C@]6(C)[C@H]5C[C@H](O)[C@]34C)NC(=O)[C@@H]3CCCN3C(=O)[C@H](CC(N)=O)NC(=O)[C@H](C)N(C)C(=O)[C@H](Cc3ccc(O)cc3)NC(=O)CSC[C@@H](C(=O)NCC(N)=O)NC(=O)[C@H](CC(C)C)NC(=O)[C@H](CCCC)N(C)C(=O)[C@H](CCCC)N(C)C2=O)c2ccccc21` [Example 2034] ({CH2CO}-Y[NMeA]NP[Dap]([Gly-Cholyl])L[Pro(4R-Me)]W[Dab]([Gly-Cholyl])[X30][NMeNle][NMeNle]LCG-NH2; thioether N-14), the IC50 is 5200 nM.

In the case of `CCCC[C@H]1C(=O)N(C)[C@@H](CCCC)C(=O)N[C@@H](CC(C)C)C(=O)N[C@H](C(=O)NCC(N)=O)CSCC(=O)N[C@@H](Cc2ccc(O)cc2)C(=O)N(C)[C@@H](C)C(=O)N[C@@H](CC(N)=O)C(=O)N2CCC[C@H]2C(=O)N[C@@H](CNC(=O)CNC(=O)CC[C@@H](C)[C@H]2CC[C@H]3[C@@H]4[C@H](O)C[C@@H]5C[C@H](O)CC[C@]5(C)[C@H]4C[C@H](O)[C@]23C)C(=O)N[C@@H](CC(C)C)C(=O)N2C[C@H](C)C[C@H]2C(=O)N[C@@H](Cc2c[nH]c3ccccc23)C(=O)N[C@@H](CCNC(=O)CNC(=O)CC[C@@H](C)[C@H]2CC[C@H]3[C@@H]4[C@H](O)C[C@@H]5C[C@H](O)CC[C@]5(C)[C@H]4C[C@H](O)[C@]23C)C(=O)N[C@@H](Cc2cn(CC(=O)OCCO)c3ccccc23)C(=O)N1C` [Example 2035] ({CH2CO}-Y[NMeA]NP[Dap]([Gly-Cholyl])L[Pro(4R-Me)]W[Dab]([Gly-Cholyl])[X37][NMeNle][NMeNle]LCG-NH2; thioether N-14), the IC50 worked out at 830 nM.

As to `CCCC[C@H]1C(=O)N(C)[C@@H](CCCC)C(=O)N[C@@H](CC(C)C)C(=O)N[C@H](C(=O)NCC(N)=O)CSCC(=O)N[C@@H](Cc2ccc(O)cc2)C(=O)N(C)[C@@H](C)C(=O)N[C@@H](CC(N)=O)C(=O)N2CCC[C@H]2C(=O)N[C@@H](CNC(=O)CNC(=O)CC[C@@H](C)[C@H]2CC[C@H]3[C@@H]4[C@H](O)C[C@@H]5C[C@H](O)CC[C@]5(C)[C@H]4C[C@H](O)[C@]23C)C(=O)N[C@@H](CC(C)C)C(=O)N2C[C@H](C)C[C@H]2C(=O)N[C@@H](Cc2c[nH]c3ccccc23)C(=O)N[C@@H](CCNC(=O)CNC(=O)CC[C@@H](C)[C@H]2CC[C@H]3[C@@H]4[C@H](O)C[C@@H]5C[C@H](O)CC[C@]5(C)[C@H]4C[C@H](O)[C@]23C)C(=O)N[C@@H](Cc2cn(CC(=O)OCCOCCO)c3ccccc23)C(=O)N1C` [Example 2036] ({CH2CO}-Y[NMeA]NP[Dap]([Gly-Cholyl])L[Pro(4R-Me)]W[Dab]([Gly-Cholyl])[X4][NMeNle][NMeNle]LCG-NH2; thioether N-14), the IC50 was determined as 1000 nM.

Turning to `CCCC[C@H]1C(=O)N(C)[C@@H](CCCC)C(=O)N[C@@H](CC(C)C)C(=O)N[C@H](C(=O)NCC(N)=O)CSCC(=O)N[C@@H](Cc2ccc(O)cc2)C(=O)N(C)[C@@H](C)C(=O)N[C@@H](CC(N)=O)C(=O)N2CCC[C@H]2C(=O)N[C@@H](CNC2CC[C@@]3(C)[C@@H](C2)CC(O)[C@@H]2[C@@H]3CC(=O)[C@]3(C)[C@@H]([C@H](C)CCC(=O)O)CC[C@@H]23)C(=O)N[C@@H](CC(C)C)C(=O)N2C[C@H](O)C[C@H]2C(=O)N[C@@H](Cc2c[nH]c3ccccc23)C(=O)N[C@@H](CCNC2CC[C@@]3(C)[C@@H](C2)CC(O)[C@@H]2[C@@H]3CC(=O)[C@]3(C)[C@@H]([C@H](C)CCC(=O)O)CC[C@@H]23)C(=O)N[C@@H](Cc2cn(CC(=O)O)c3ccccc23)C(=O)N1C` (stereo partly drawn) [Example 3001] ({CH2CO}-Y[NMeA]NP[X8]L[Hyp]W[X9][Trp(1-CH2COOH)][NMeNle][NMeNle]LCG-NH2; thioether N-14), the IC50 amounted to 20 nM.

For orientation: IC50 means the concentration that gives 50% inhibition.
